# PMC10600239, “Selective MCL-1 inhibitor ABBV-467 is efficacious in tumor models but is associated with cardiac troponin increases in patients” (Communications Medicine, 2023)
# Values joined by “and” are separate entries in the source; they are usually repeats but may differ in a detail not shown here. Equal values may be shown once.
# Test system: AMO-1 xenografts
# Test: AMO-1 xenograft efficacy (tumor volume, body weight)
# Format: in vivo, mouse
# Settings: for % Weight Change (individual weights) / Weight, g (individual weights): individual animal, Day 21; for Xenograft AMO-1 (DSMZ) (mm³) Day 16 / Xenograft AMO-1 (DSMZ) (mm³) Day 19: tumor volume
# Method: All animal studies were conducted in accordance with the guidelines approved by the Institutional Animal Care and Use Committees of AbbVie. The research protocol was approved by In Vivo Pharmacology at AbbVie prior to study initiation but was not publicly registered or disclosed. Female C.B-17 SCID-beige mice (AMO-1, OPM-2, NCI-H929, and OCI-AML2 xenografts) and female NSG mice (MV4-11-Red.Fluc systemic) were purchased from Charles River Laboratories (Wilmington, MA). Animals were housed in a light cycle-controlled room with HEPA filtration at 22 °C. Animals had nesting and climbing cage topper as the primary environmental enrichment. Animals were inoculated subcutaneously in the right flank with 5 × 10^6 (AMO-1, OPM-2, NCI-H929, and OCI-AML2) or intravenous (IV) with 5 × 10^6 (MV4-11-Red.Fluc). The inoculation volume (0.2 mL) comprised a 50:50 mixture of cells in growth media and Matrigel (BD Biosciences) for subcutaneous injections and 100% phosphate-buffered saline for IV administration. All cell lines used in this publication were authenticated using IDEXX for STR profiling as well as their IMPACT and human IMPACT panels for pathogen screening. Electronic calipers were used to measure the length and width of each tumor 2 to 3 times per week. Tumor volume was estimated by applying the following equation: volume = length × width^2/2. All groups remained blinded during measurements and dosing; only veterinary staff were aware of group identity. When tumors reached approximately 200 mm^3, mice were randomized by match and distributed into treatment and control groups. All xenograft trials were conducted using 5 to 10 mice per group, and all mice were ear tagged and monitored individually throughout the studies. […] Tumor burden in the systemic MV4-11-Red.Fluc experiment was measured using an IVIS® spectrum from PerkinElmer by taking the total photon flux of the entire dorsal side of an individual mouse. […] A background control mouse that was tumor naive but received D-Luciferin was placed in the upper left corner of each image. The total flux from this animal was subtracted from the total flux of each animal present in the image.
# For in vivo studies, maximal tumor growth inhibition (TGI) was calculated as the greatest treatment response using the following equation: Maximal TGI = (1 − mean tumor volume of the treated group/mean tumor volume of the vehicle control group) × 100. The tumor growth delay (TGD) percentage was determined as the percentage increase of the median time period for the treatment group to reach an arbitrary tumor volume of 1000 mm^3 relative to the vehicle control group. […] A power analysis was conducted using historical data to determine the number of animals required to yield significance of 0.05 at a 30% difference. […] Data from experiments in vivo were analyzed using the student’s t-test for TGI values and the Mann–Whitney U test for TGD using Excel and GraphPad Prism. Fisher’s exact test was used to probe significance of differences in response frequency.
# [1] = 25 mg/kg, Q7Dx2, IV, SCID-beige female mice, Day 91
# [2] = Day 14, 6.25 mg/kg Q7Dx2 IV, control Group 01
# [3] = Day 14, 25 mg/kg Q7Dx2 IV, control Group 01
# [4] = Day 80, 25 mg/kg Q7Dx2 IV, SCID-beige female mice
# [5] = Day 82, 25 mg/kg Q7Dx2 IV, SCID-beige female mice
# [6] = SCID-beige female mice, 25 mg/kg Q7Dx2 IV, Day 47, remaining animals
# [7] = SCID-beige female mice, 25 mg/kg Q7Dx2 IV, Day 75
# [8] = SCID-beige female mice, 25 mg/kg Q7Dx2 IV, Day 88, surviving animals
# [9] = control Group 01, 6.25 mg/kg Q7Dx2 IV
# [10] = control Group 01, 25 mg/kg Q7Dx2 IV
compound,measurement,setting,value
Cc1c(Cl)c2c(Cl)c(C)c1-c1c(-c3ccc(F)cc3)sc3ncnc(c13)O[C@@H](C(=O)O)Cc1cc(ccc1OCc1ccnc(-c3ccc(OC[C@H]4COCCO4)cc3)n1)OC[C@@H](CN1CCN(C)CC1)O2 [Compound A-1747745.0],"Xenograft AMO-1 (DSMZ) tumor volume Day 91, Mean",[1],22.37 mm³
same,"Xenograft AMO-1 (DSMZ) tumor volume Day 91, Median",[1],22.37 mm³
same,"Xenograft AMO-1 (DSMZ) tumor volume Day 91, individual animal",[1],22 mm³
same,% Mortality,"AMO-1 (DSMZ) xenograft, SCID-beige mouse, 6.25 mg/kg IV Q7Dx2",100.00%
same,% Mortality,"AMO-1 (DSMZ) xenograft, SCID-beige mouse, 25 mg/kg IV Q7Dx2",100.00%
same,% BW Loss,"AMO-1 (DSMZ) xenograft, SCID-beige mouse, 25 mg/kg IV Q7Dx2, day 21",-2% (day 21)
same,"Body Weight Day 14, % T/C (mean)",[2],96.25%
same,"Body Weight Day 14, % T/C (median)",[2],96.25%
same,"Body Weight Day 14, % T/C (mean)",[3],98.12%
same,"Body Weight Day 14, % T/C (median)",[3],98.12%
same,"Xenograft AMO-1 (DSMZ) tumor volume, Mean",[4],10.80 mm³
same,"Xenograft AMO-1 (DSMZ) tumor volume, Median",[4],10.80 mm³
same,"Xenograft AMO-1 (DSMZ) tumor volume, individual animal",[4],11 mm³
same,"Xenograft AMO-1 (DSMZ) tumor volume, Mean",[5],12.07 mm³
same,"Xenograft AMO-1 (DSMZ) tumor volume, Median",[5],12.07 mm³
same,"Xenograft AMO-1 (DSMZ) tumor volume, individual animal",[5],12 mm³
same,Xenograft AMO-1 (DSMZ) tumor volume Day 47 (individual animal),"SCID-beige female mice, 25 mg/kg Q7Dx2 IV, Day 47",8 mm³
same,"Xenograft AMO-1 (DSMZ) tumor volume Day 47, Mean",[6],8.10 mm³
same,"Xenograft AMO-1 (DSMZ) tumor volume Day 47, Median",[6],8.10 mm³
same,"Xenograft AMO-1 (DSMZ) Day 75 tumor volume, Mean",[7],13.50 mm³
same,"Xenograft AMO-1 (DSMZ) Day 75 tumor volume, Median",[7],13.50 mm³
same,"Xenograft AMO-1 (DSMZ) Day 75 tumor volume, individual animals",[7],14 mm³
same,"Xenograft AMO-1 (DSMZ) Day 88 (tumor volume, individual animals)","SCID-beige female mice, 25 mg/kg Q7Dx2 IV, Day 88",15 mm³
same,"Xenograft AMO-1 (DSMZ) Day 88, Mean",[8],14.75 mm³
same,"Xenograft AMO-1 (DSMZ) Day 88, Median",[8],14.75 mm³
same,"Xenograft AMO-1 (DSMZ) (mm³) Day 84, Mean","group mean tumor volume of remaining animals, SCID-beige female mice, 25 mg/kg Q7Dx2 IV, Day 84",5.32 mm³
same,Xenograft AMO-1 (DSMZ) (mm³) Day 16 Mean,"group mean, Day 16, 3.13 mg/kg QDx1 IV",205.11 mm³
same,Xenograft AMO-1 (DSMZ) (mm³) Day 16 Mean,"group mean, Day 16, 6.25 mg/kg QDx1 IV",172.06 mm³
same,Xenograft AMO-1 (DSMZ) (mm³) Day 19 Mean,"group mean, Day 19, 3.13 mg/kg QDx1 IV",192.25 mm³
same,Xenograft AMO-1 (DSMZ) (mm³) Day 19 Mean,"group mean, Day 19, 6.25 mg/kg QDx1 IV",133.62 mm³
same,"Xenograft AMO-1 (DSMZ) (mm³) Day 70, Mean","group mean, 25 mg/kg Q7Dx2 IV, SCID-beige mice, Day 70",24.72 mm³
same,"Xenograft AMO-1 (DSMZ) (mm³) Day 84, Median","group median tumor volume of remaining animals, SCID-beige female mice, 25 mg/kg Q7Dx2 IV, Day 84",5.32 mm³
same,Xenograft AMO-1 (DSMZ) (mm³) Day 16 Median,"group median, Day 16, 3.13 mg/kg QDx1 IV",207.59 mm³
same,Xenograft AMO-1 (DSMZ) (mm³) Day 16 Median,"group median, Day 16, 6.25 mg/kg QDx1 IV",173.79 mm³
same,Xenograft AMO-1 (DSMZ) (mm³) Day 19 Median,"group median, Day 19, 3.13 mg/kg QDx1 IV",202.67 mm³
same,Xenograft AMO-1 (DSMZ) (mm³) Day 19 Median,"group median, Day 19, 6.25 mg/kg QDx1 IV",134.81 mm³
same,"Xenograft AMO-1 (DSMZ) (mm³) Day 70, Median","group median, 25 mg/kg Q7Dx2 IV, SCID-beige mice, Day 70",24.72 mm³
same,Xenograft AMO-1 (DSMZ) (mm³) Day 84,"individual animal tumor volume, SCID-beige female mice, 25 mg/kg Q7Dx2 IV, Day 84",5.32 mm³
same,% Weight Change (individual weights),6.25 mg/kg IV Q7Dx2,0.65%
same,"Weight, g (individual weights)",6.25 mg/kg IV Q7Dx2,22.14 g
same,% Weight Change (individual weights),25 mg/kg IV Q7Dx2,-1.91%
same,"Weight, g (individual weights)",25 mg/kg IV Q7Dx2,22.00 g
same,Body Weight (g) Day 14,"individual animals, Day 14, 3.13 mg/kg QDx1 IV",22 g
same,Body Weight (g) Day 14,"individual animals, Day 14, 6.25 mg/kg QDx1 IV",22 g
same,Xenograft AMO-1 (DSMZ) (mm³) Day 70,"individual animals, 25 mg/kg Q7Dx2 IV, SCID-beige mice, Day 70",25 mm³
same,"Body Weight Day 14, % T/C (mean)","Day 14, 3.13 mg/kg QDx1 IV",102.98%
same,"Body Weight Day 14, % T/C (mean)","Day 14, 6.25 mg/kg QDx1 IV",102.98%
same,Xenograft AMO-1 Day 16 % T/C (mean),"Day 16, 3.13 mg/kg QDx1 IV",61.23%
same,Xenograft AMO-1 Day 16 % T/C (mean),"Day 16, 6.25 mg/kg QDx1 IV",51.36%
same,Xenograft AMO-1 Day 19 % T/C (mean),"Day 19, 3.13 mg/kg QDx1 IV",44.28%
same,Xenograft AMO-1 Day 19 % T/C (mean),"Day 19, 6.25 mg/kg QDx1 IV",30.78%
same,"% T/C (mean), Body Weight Day 21",[9],96.87%
same,"% T/C (mean), Body Weight Day 21",[10],96.25%
same,"Body Weight Day 14, % T/C (median)","Day 14, 3.13 mg/kg QDx1 IV",102.98%
same,"Body Weight Day 14, % T/C (median)","Day 14, 6.25 mg/kg QDx1 IV",102.98%
same,Xenograft AMO-1 Day 16 % T/C (median),"Day 16, 3.13 mg/kg QDx1 IV",62.33%
same,Xenograft AMO-1 Day 16 % T/C (median),"Day 16, 6.25 mg/kg QDx1 IV",52.18%
same,Xenograft AMO-1 Day 19 % T/C (median),"Day 19, 3.13 mg/kg QDx1 IV",51.55%
same,Xenograft AMO-1 Day 19 % T/C (median),"Day 19, 6.25 mg/kg QDx1 IV",34.29%
same,"% T/C (median), Body Weight Day 21",[9],96.87%
same,"% T/C (median), Body Weight Day 21",[10],96.25%
same,"Relative to initial body wt., %","mouse, in vivo, iv, 3.13 mg/kg",0.00%
same,Body Weight (g) Day 14 (individual animals),"mouse, in vivo, iv, 6.25 mg/kg",22 g
same,"Body Weight (g) Day 14, Mean","mouse, in vivo, iv, 6.25 mg/kg",22.00 g
same,"Body Weight (g) Day 14, Median","mouse, in vivo, iv, 6.25 mg/kg",22.00 g
same,Body Weight (g) Day 21,"mouse, in vivo, iv, 6.25 mg/kg",22 g
same,Body Weight (g) Day 21 Mean,"mouse, in vivo, iv, 6.25 mg/kg",22.14 g
same,Body Weight (g) Day 21 Median,"mouse, in vivo, iv, 6.25 mg/kg",22.14 g
same,Body Weight (g) Day 14 (individual animals),"mouse, in vivo, iv, 25 mg/kg",22 g
same,"Body Weight (g) Day 14, Mean","mouse, in vivo, iv, 25 mg/kg",22.43 g
same,"Body Weight (g) Day 14, Median","mouse, in vivo, iv, 25 mg/kg",22.43 g
same,Body Weight (g) Day 21,"mouse, in vivo, iv, 25 mg/kg",22 g
same,Body Weight (g) Day 21 Mean,"mouse, in vivo, iv, 25 mg/kg",22.00 g
same,Body Weight (g) Day 21 Median,"mouse, in vivo, iv, 25 mg/kg",22.00 g
same,Xenograft AMO-1 (DSMZ) (mm³) Day 16,"individual animals, Day 16, 3.13 mg/kg QDx1 IV",195 mm³ and 171 mm³ and 227 mm³ and 217 mm³ and 219 mm³ and 212 mm³ and 203 mm³ and 196 mm³
same,Xenograft AMO-1 (DSMZ) (mm³) Day 16,"individual animals, Day 16, 6.25 mg/kg QDx1 IV",158 mm³ and 174 mm³ (2×) and 187 mm³ and 182 mm³ and 167 mm³ and 173 mm³ and 160 mm³
same,Xenograft AMO-1 (DSMZ) (mm³) Day 19,"individual animals, Day 19, 3.13 mg/kg QDx1 IV",210 mm³ and 196 mm³ and 181 mm³ and 173 mm³ and 128 mm³ and 213 mm³ and 209 mm³ and 227 mm³
same,Xenograft AMO-1 (DSMZ) (mm³) Day 19,"individual animals, Day 19, 6.25 mg/kg QDx1 IV",142 mm³ and 122 mm³ and 113 mm³ and 105 mm³ and 128 mm³ and 144 mm³ and 162 mm³ and 152 mm³
